Measurements: paper PMC7411710, “Biocatalysis of D,L-Peptide Nanofibrillar Hydrogel” (Molecules, 2020)
Non-standard residues stand in square brackets, D forms with d. Residues, ends and D or L forms follow the SMILES beside them.

Tests used:
[1] = cited from earlier work
From the text: However, at present, it is still not possible to predict exactly the performance of a de novo designed peptide. Amongst the various approaches to achieve a self-assembling short peptide, an attractive strategy features the inclusion of both D- and L-amino acids at specific positions along a heterochiral sequence, whereby nanostructured hydrogels can be formed even with just three amino acids, while their homochiral isomers typically precipitate in water. These supramolecular systems feature amphipathic assemblies, whereby the different stereoconfiguration allows displaying hydrophobic s ...

[2] = water solubility (observation); assay type: physicochemical; settings: neutral pH
[3] = oscillatory rheometry; assay type: physicochemical; settings: 10 mM; 1 Hz; 25 °C
Protocol: His–Leu–^DLeu–Ile–His–Leu–^DLeu–Ile (Scheme 1) was synthesized in solid phase and purified by reverse-phase HPLC, following published procedures. Peptide identity and purity was confirmed by ^1H-NMR and electrospray ionization (ESI)-MS (see Supplementary Materials). […] A pH change to neutral was then used to trigger fibrillization, which, at higher concentrations, led to the formation of self-supportive hydrogels, with a minimum gelling concentration (mgc) of 10 mM. The viscoelastic properties of the hydrogel were assessed by oscillatory rheometry (see Supplementary Materials). At mgc, the peptide gelled immediately and reached a G′ of 1 kPa, which remained stable over time. Frequency sweeps confirmed G′ > G″, with both values being independent of applied frequency, as expected for a stable hydrogel. Stress sweeps confirmed a linear viscoelastic region until 1 Pa, with a gel-to-sol transition occurring above 10 Pa.
Dynamic time sweep rheological analysis was conducted on a Malvern Kinexus Ultra Plus Rheometer (Alfatest, Milan, Italy) with a 20-mm stainless-steel parallel plate geometry. […] Samples were prepared in situ and immediately analyzed with a gap of 1 mm. Time sweeps were recorded using a frequency of 1 Hz and a controlled stress of 0.50 Pa. Frequency sweeps were recorded using a controlled stress of 0.50 Pa, and then stress sweeps were recorded using a frequency of 1 Hz.

[4] = pH 7.4; without Zn2+; cited from earlier work
From the text: Table 2 Comparison of catalytic performance with literature data on short peptides without Zn^2+. | column: kcat/KM (s^−1M^−1)

In the case of His–^DPhe–^DPhe, the “concentration of hydrogel formation” value [1] is listed as 50 mM.
With CC[C@H](C)[C@H](NC(=O)[C@@H](CC(C)C)NC(=O)[C@H](CC(C)C)NC(=O)[C@H](Cc1c[nH]cn1)NC(=O)[C@@H](NC(=O)[C@@H](CC(C)C)NC(=O)[C@H](CC(C)C)NC(=O)[C@@H](N)Cc1c[nH]cn1)[C@@H](C)CC)C(=O)O [His–Leu–^DLeu–Ile–His–Leu–^DLeu–Ile] (H-HL[dL]IHL[dL]I-OH) the water solubility [2] was “limited water solubility” and the “gel-to-sol transition (stress sweep)” value [3] was “above 10 Pa”.
In the case of “H2KLLLAAA(Nε-palmytoyl)K-NH2 [peptide amphiphile reported by Guler and Stupp]”, the kcat/KM [4] is listed as 20 s^−1M^−1.
In the case of “HSGQQKFQFQFEQQ [self-assembling His peptide, literature catalyst]”, the kcat/KM [4] is listed as 0.09 s^−1M^−1.
